# Source: patent publication US12163953B2, “P-phenylene ethynylene compounds as bioactive and detection agents” (STC.UNM, priority 2014, dated 2024)
# Structures can show the parent of a compound that is named as a salt. Where two headings read alike, the source gives them in different places.
# Key:
# [1] = test system: B. atrophaeus vegetative cells; format: cell-based, Bacillus atrophaeus; conditions: 10 μg/mL
# B. atrophaeus spores = format: cell-based, Bacillus atrophaeus
# [2] = test system: B. anthracis Sterne vegetative cells; format: cell-based, Bacillus anthracis Sterne; conditions: 10 μg/mL, light-activated PE
# [3] = test system: B. anthracis Sterne spores; format: cell-based, Bacillus anthracis Sterne; conditions: within 90 minutes
# [4] = Absorbance and fluorescence of −1C with AChE inhibitors without LaCh (aggregation control); format: physicochemical; conditions: 5 uM −1C with 5 ug/mL inhibitor, no LaCh
# Experimental: As shown in FIGS. 12A-C, it is clear that inhibition of AChE by several different inhibitors is apparent in the attenuated loss of fluorescence compared with the reference solution, with no inhibitor. […] FIGS. 13A-B illustrate (A) absorbance and (B) fluorescence (Ex: 370 nm) of 5 uM −1C with 5 ug/mL of either LaCh or one of the three AChE Inhibitors used in this study. […] Further, there is little overlap between the fluorescence of the TAE-1/IPE complex and that of the PE/LaCh complex.
# [5] = Photophysical properties of PEs alone (excitation/emission spectra, fluorescence yield); format: physicochemical
# Experimental: Excitation and emission spectra of PEs in phosphate buffer alone, with monomeric HEWL and with HEWL amyloids (8 h incubated) are shown in FIGS. 18A-H, and relevant photophysical properties are summarized in Table 1. FIGS. 18A-H illustrate excitation (A, B, C, D) and emission (right; E, F, G. H) spectra of PEs (A, E: PE1+; B, F: PE1−; C, G: PE2+; D, H: […]) alone (long dashed line) with HEWL monomers (short dashed line) and with HEWL amyloids (solid line); PE concentration: 500 nM, protein concentration: 5 μM monomer basis/0.25 mg/mL; emission and excitation wavelengths, respectively, were chosen as shown in Table 1 for each sample. A 10:1 molar ratio of protein to PE was used for these experiments. Absorbance spectra were taken, but background light scattering from insoluble amyloid aggregates made them difficult to interpret, so “fluorescence detected absorbance” in the form of excitation spectra was used instead. Normalized excitation and emission spectra, in which peak shifts and lineshape changes of spectra were somewhat easier to visualize, were used. […] PE1+ (FIG. 18E) had no change in wavelength or lineshape of emission spectrum, just a large increase in intensity when mixed with amyloids. The excitation spectra (FIGS. 18A, B, C, D) show a notable bathochromic shift for each PE in solution mixed with amyloid, of 23, 27, 35 and 29 nm for PE1+, PE2+, PE3+ and PE1−, respectively, observing only the low-energy band. The high-energy band, less relevant for imaging purposes, was also bathochromically shifted. […] PE1− had similar excitation spectrum (FIG. 18B) with monomer and amyloid, except for a large intensity difference.
# (§1) For studies of fluorescence enhancement vs. protein incubation time, dyes were mixed with protein sample in phosphate buffer (10 mM, pH 7.4) at equal monomer concentration of 10 μM in the wells of a standard 96-well plate. Emission spectra were obtained using top read with a SpectraMax M2e plate-reading spectrophotometer (Molecular Devices, Sunnyvale, CA). Experiments were performed in duplicate and errors are reported as standard deviation. For analysis of bound PE excitation and emission spectra and protein-PE energy transfer, PEs (500 nM) were mixed with protein sample (5 μM, monomer basis) in phosphate buffer and the solution transferred to a quartz, fluorometry cuvette. Spectra were obtained on a PTI QuantaMaster 40 steady state spectrofluorometer (HORIBA Scientific, Edison, NJ).
# [6] = molecular target: T1, HEWL fibrils incubated for different lengths of time (Gallus gallus, UniProt P00698); experiment: Fluorescence enhancement of dyes versus HEWL incubation time; format: binding, hen
# T1 construct: Lyophilized HEWL was dissolved at 10 mg/mL in 10 mM pH 3 sodium citrate buffer with 0.1 M NaCl; purchased Sigma-Aldrich; host or cells: hen egg white; fibrillised in house (pH 3, 70 °C, stirred)
# T1 sequence (P00698 19-147): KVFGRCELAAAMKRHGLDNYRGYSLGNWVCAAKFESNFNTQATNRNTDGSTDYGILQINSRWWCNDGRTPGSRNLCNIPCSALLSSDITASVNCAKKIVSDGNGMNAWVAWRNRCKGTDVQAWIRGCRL
# Experimental: Hen egg white lysozyme (HEWL) was used to form fibrillary amyloid aggregates for use in this study. […] For these experiments. HEWL (Sigma-Aldrich) was incubated at 70′C and a concentration of 350 μM in pH 3 sodium citrate buffer (10 mM) with 100 mM NaCl.
# A plot of normalized fluorescence enhancement for all four PEs and Thioflavin T with HEWL fibrils incubated for different lengths of time is shown in FIG. 15. PE1+ and PE2+ track amyloid formation in roughly the same way as ThT, showing a sigmoidal curve with onset of a logarithmic growth phase occurring at the same time, around 1 hour of incubation. The plateau phase, as monitored by fluorescence of any of those three PEs or ThT, appeared at 2 hours incubation.
# as §1
# [7] = Absorbance/fluorescence spectroscopy and fluorescence quantum yield (comparative method) of PEs and PE/substrate aggregates; format: physicochemical
# HEWL amyloids = molecular target: T2, HEWL amyloids (Gallus gallus, UniProt P00698); experiment: Excitation and emission spectra of PEs with HEWL amyloids; format: binding, hen; conditions: PE 500 nM, HEWL amyloid 5 μM monomer basis
# T2 construct: Lyophilized HEWL was dissolved at 10 mg/mL in 10 mM pH 3 sodium citrate buffer with 0.1 M NaCl; purchased Sigma-Aldrich; host or cells: hen egg white; fibrillised in house (pH 3, 70 °C, stirred)
# T2 sequence (P00698 19-147): as above
# Experimental: Excitation and emission spectra of PEs in phosphate buffer alone, with monomeric HEWL and with HEWL amyloids (8 h incubated) are shown in FIGS. 18A-H, and relevant photophysical properties are summarized in Table 1. FIGS. 18A-H illustrate excitation (A, B, C, D) and emission (right; E, F, G. H) spectra of PEs (A, E: PE1+; B, F: PE1−; C, G: PE2+; D, H: PE3+) in phosphate buffer (PB, pH 7.4, 10 mM) alone (long dashed line) with HEWL monomers (short dashed line) and with HEWL amyloids (solid line); PE concentration: 500 nM, protein concentration: 5 μM monomer basis/0.25 mg/mL; emission and excitation wavelengths, respectively, were chosen as shown in Table 1 for each sample. A 10:1 molar ratio of protein to PE was used for these experiments. Absorbance spectra were taken, but background light scattering from insoluble amyloid aggregates made them difficult to interpret, so “fluorescence detected absorbance” in the form of excitation spectra was used instead. Normalized excitation and emission spectra, in which peak shifts and lineshape changes of spectra were somewhat easier to visualize, were used. […] PE1+ (FIG. 18E) had no change in wavelength or lineshape of emission spectrum, just a large increase in intensity when mixed with amyloids. The excitation spectra (FIGS. 18A, B, C, D) show a notable bathochromic shift for each PE in solution mixed with amyloid, of 23, 27, 35 and 29 nm for PE1+, PE2+, PE3+ and PE1−, respectively, observing only the low-energy band. The high-energy band, less relevant for imaging purposes, was also bathochromically shifted. […] PE1− had similar excitation spectrum (FIG. 18B) with monomer and amyloid, except for a large intensity difference.
# Lyophilized HEWL was dissolved at 10 mg/mL in 10 mM pH 3 sodium citrate buffer with 0.1 M NaCl. The solution was incubated in a 70C oil bath and magnetically stirred at 250 rpm for 12 h, and aliquots were withdrawn at half-hour intervals. […] Half of each aliquot was immediately diluted into pH 7.4 phosphate buffer to prevent further influence of acidic conditions and stored at 4C.
# as §1
# HEWL monomers = molecular target: T3, HEWL monomers (Gallus gallus, UniProt P00698); experiment: Fluorescence interaction of PEs with HEWL monomers; format: binding, hen; conditions: HEWL monomers 5 μM/0.25 mg/mL
# T3 construct: Hen egg white lysozyme and Thioflavin T were obtained from Sigma-Aldrich Chemical Company; purchased Sigma-Aldrich; host or cells: hen egg white
# T3 sequence (P00698 19-147): as above
# Experimental: Excitation and emission spectra of PEs in phosphate buffer alone, with monomeric HEWL and with HEWL amyloids (8 h incubated) are shown in FIGS. 18A-H, and relevant photophysical properties are summarized in Table 1. FIGS. 18A-H illustrate excitation (A, B, C, D) and emission (right; E, F, G. H) spectra of PEs (A, E: PE1+; B, F: PE1−; C, G: PE2+; D, H: PE3+) in phosphate buffer (PB, pH 7.4, 10 mM) alone (long dashed line) with HEWL monomers (short dashed line) and with HEWL amyloids (solid line); PE concentration: 500 nM, protein concentration: 5 μM monomer basis/0.25 mg/mL; emission and excitation wavelengths, respectively, were chosen as shown in Table 1 for each sample. […] Absorbance spectra were taken, but background light scattering from insoluble amyloid aggregates made them difficult to interpret, so “fluorescence detected absorbance” in the form of excitation spectra was used instead. […]
# [formula] where x is PE concentration (with protein concentration fixed), y is PE fluorescence intensity. […] Fits to the data for the three cationic PEs produced Fmax values close to the observed saturation value, and the other two parameters are reported as calculated. […]
# For studies of fluorescence enhancement vs. protein incubation time, dyes were mixed with protein sample in phosphate buffer (10 mM, pH 7.4) at equal monomer concentration of 10 μM in the wells of a standard 96-well plate. […]
# HEWL amyloid fibrils = molecular target: T4, HEWL amyloid fibrils (Gallus gallus, UniProt P00698); experiment: Induced circular dichroism of PE-amyloid complexes; format: binding, hen; conditions: PEs 10 μM, HEWL 10 μM monomer basis
# T4 construct: Lyophilized HEWL was dissolved at 10 mg/mL in 10 mM pH 3 sodium citrate buffer with 0.1 M NaCl; purchased Sigma-Aldrich; host or cells: hen egg white; fibrillised in house (pH 3, 70 °C, stirred)
# T4 sequence (P00698 19-147): as above
# Experimental: Circular dichroism measurements were performed to determine if the intrinsic chirality of the HEWL fibrils was transferred to the PE chromophore by a chiral backbone twist or an “excitonic” chiral supramolecular aggregate. CD spectroscopy (CPEs in PB with HEWL monomer and with HEWL amyloid; performed for (a): PE1+; (b): PE1−; (c): PE2+; (d): PE3+; PEs 10 μM, HEWL 10 μM monomer basis/0.5 mg/mL) indicated induced circular dichroism of PEs when bound to HEWL amyloids. As expected, no PE had optical activity by itself in phosphate buffer solution and none of the PEs had any CD with HEWL monomer, including PE1−. […] PE2+ and PE3+ gave rise to similar CD spectra, with more intense bands in the spectrum for PE3+.
# PEs and protein samples were diluted in phosphate buffer, gently vortexed, and read in a 1 mm pathlength quartz CD cuvette using an Aviv 410 CD spectrometer (Aviv Biomedical, Lakewood, NJ), 15 s averaging time. A blank spectrum (PB only) was subtracted from each sample to remove background activity. Error bars are standard deviation over multiple reads of a single sample as reported by the instrument.
# [8] = phosphate buffer pH 7.4, 10 mM, PE 500 nM
structure (smiles),measurement,setting,value
"C[N+](C)(C)CCOc1ccc(C#CC2=CC=C(C#Cc3ccc(OCC[N+](C)(C)C)cc3)C2)cc1.I [EO-PE (Th,C2)]",cell death,"[1]; 1 hour, light-activated (UVA)",99%
same,uptake of PI relative to untreated cells,"[1]; 1 hr, dark",increased tenfold
same,cells killed,"[1]; 1 hr, in the absence of light",73%
same,effect of increasing PE concentration on death or germination of spores,B. atrophaeus spores,no increased effect
same,spores in which the water influx event progressed to stain uptake matching vegetative cells (germination),B. atrophaeus spores,39%
same,spores still fluorescing like untreated spores (S gate),B. atrophaeus spores,61%
same,spores that successfully germinate,B. atrophaeus spores,15%
same,log reduction of vegetative cells,[2]; within 30 minutes,~4 log
same,log reduction of vegetative cells,[2]; within 90 minutes,5 log
same,killing of spores,"[3]; 20 ng PE/spore, light-activated PE",99%
same,spores induced to germinate,[3]; absence of UVA light,81%
same,spores not killed that germinate into viable colony-forming vegetative cells (of all spores),[3]; absence of UVA light,72%
"COc1ccc(C(=O)NCc2ccc(OCCN(C)C)cc2)cc1OC [Itopride, N-[[4-[2-(Dimethylamino)ethoxy]phenyl]methyl]-3,4-dimethoxy benzamidehydrochloride]",aggregation induced with −1C,[4],no significant aggregation
"CCC1(c2cccc(O)c2)CCCCN(C)C1.Cl (stereo not shown) [Meptazinol, 3-(3-ethylhexahydro-1-methyl-1H-azepin-3-yl)-phenol hydrochloride]",aggregation induced with −1C,[4],no significant aggregation
CCOC(=O)c1ccc(C#Cc2cc(OCCS(=O)(=O)O)c(C#Cc3ccc(C(=O)OCC)cc3)cc2OCCS(=O)(=O)O)cc1 [PE1−],λem (H2O),[5]; H2O,454 nm
same,λem (PB),[5]; phosphate buffer,454 nm
same,"λex (PB), high-energy band",[5]; [8],314 nm
same,"λex (PB), low-energy band",[5]; [8],370 nm
same,fluorescence enhancement with monomeric species versus amyloid,"[6]; equimolar concentrations, 10 μM",greater fluorescence enhancement when mixed with monomeric species than with amyloid
same,"enhancement of fluorescence quantum yield, LaCh complex versus PE alone",[7]; 5 uM PE with 32 uM LaCh,66 times
same,fluorescence quantum yield of aggregate with LaCh,[7]; 5 uM PE with 32 uM LaCh,0.991
same,centre of structured emission upon aggregation with substrate,"[7]; +2C with DLPG, −1C with LaCh",442 nm
same,"fluorescence quantum yield, PE alone","[7]; in water, corrected value of this study",0.015
same,"bathochromic shift of excitation spectrum, low-energy band, with amyloid",HEWL amyloids,29 nm
same,λem (PB w/ HEWL),HEWL amyloids; PB,439 nm
same,"λex (PB w/HEWL), high-energy band",HEWL amyloids; PB,327 nm
same,"λex (PB w/HEWL), low-energy band",HEWL amyloids; PB,399 nm
same,binding to HEWL monomers,HEWL monomers,linear and non-saturable
same,induced circular dichroism with HEWL amyloid,HEWL amyloid fibrils,strong induced CD with a negative Cotton effect
C[N+](C)(C)CCOC(=O)c1ccc(Oc2nc(Oc3ccc(C(=O)OCC[N+](C)(C)C)cc3)nc(Oc3ccc(C(=O)OCC[N+](C)(C)C)cc3)n2)cc1.[I-].[I-].[I-] [TAE-1],aggregation induced with −1C,[4],red-shifted absorbance and a strongly red-shifted and broadened green fluorescence
"Cc1ccc2c(c1)sc(-c1ccc(N(C)C)cc1)[n+]2C.[Cl-] [ThT, Thioflavin T, reference compound]",HEWL incubation time at which the plateau phase of fluorescence enhancement appears,"[6]; dye 10 μM, HEWL 10 μM monomer basis",2 h
